Experimental data from patent publication US9321776B2, “Isochromene derivatives as phoshoinositide 3-kinases inhibitors” (CHIESI FARMACEUTICI S.p.A., priority 2013, dated 2016).
Counter-ions that a name gives are not always drawn.

Tests used:
Assay in all cases: PI3K enzyme inhibitory activity in the cell free assay (ADP-Glo Kinase Assay)
Format in all cases: biochemical
PI3Kβ = target: T1, PI3Kβ (Homo sapiens, UniProt P42338); conditions: human recombinant PI3Kβ, ATP 100 μM; read-out: PI3K beta inhibition
T1 construct: purchased Millipore Ltd (Billerica, Mass.)

PI3Kγ = target: T2, PI3Kγ (Homo sapiens, UniProt P48736); conditions: human recombinant PI3Kγ, ATP 30 μM; read-out: PI3K gamma inhibition
T2 construct: purchased Millipore Ltd (Billerica, Mass.)

PI3Kδ = target: T3, PI3Kδ (Homo sapiens, UniProt O00329); conditions: human recombinant PI3Kδ, ATP 80 μM; read-out: PI3K delta inhibition
T3 construct: purchased Millipore Ltd (Billerica, Mass.)
T3 sequence (O00329 1-1044): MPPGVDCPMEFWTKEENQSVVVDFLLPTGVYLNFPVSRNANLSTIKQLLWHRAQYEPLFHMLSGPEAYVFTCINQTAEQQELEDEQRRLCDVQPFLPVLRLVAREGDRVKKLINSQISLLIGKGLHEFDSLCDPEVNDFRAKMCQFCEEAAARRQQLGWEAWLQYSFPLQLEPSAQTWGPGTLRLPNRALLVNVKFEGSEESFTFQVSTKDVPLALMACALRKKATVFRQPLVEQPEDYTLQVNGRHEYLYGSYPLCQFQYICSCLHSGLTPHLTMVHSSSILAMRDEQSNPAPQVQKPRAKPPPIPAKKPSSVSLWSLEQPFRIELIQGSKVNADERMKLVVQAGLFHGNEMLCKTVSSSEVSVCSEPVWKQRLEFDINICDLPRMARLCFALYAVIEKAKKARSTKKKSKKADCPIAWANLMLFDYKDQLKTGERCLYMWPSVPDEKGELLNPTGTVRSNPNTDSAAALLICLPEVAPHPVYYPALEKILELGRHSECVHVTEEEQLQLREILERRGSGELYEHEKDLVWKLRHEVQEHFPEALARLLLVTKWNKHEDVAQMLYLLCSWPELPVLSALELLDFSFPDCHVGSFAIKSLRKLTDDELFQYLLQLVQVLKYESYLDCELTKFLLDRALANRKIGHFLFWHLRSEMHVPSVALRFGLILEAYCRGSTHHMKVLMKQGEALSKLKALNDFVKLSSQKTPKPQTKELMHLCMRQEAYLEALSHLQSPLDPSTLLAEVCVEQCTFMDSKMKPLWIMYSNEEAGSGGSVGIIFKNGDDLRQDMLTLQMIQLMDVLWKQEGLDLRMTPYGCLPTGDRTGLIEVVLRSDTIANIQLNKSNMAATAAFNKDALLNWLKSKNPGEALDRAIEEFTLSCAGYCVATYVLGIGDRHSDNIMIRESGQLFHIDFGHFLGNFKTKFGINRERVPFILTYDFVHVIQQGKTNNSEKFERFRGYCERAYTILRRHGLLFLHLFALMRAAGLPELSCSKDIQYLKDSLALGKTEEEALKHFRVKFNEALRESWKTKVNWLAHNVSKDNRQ

T2 sequence (P48736 whole entry): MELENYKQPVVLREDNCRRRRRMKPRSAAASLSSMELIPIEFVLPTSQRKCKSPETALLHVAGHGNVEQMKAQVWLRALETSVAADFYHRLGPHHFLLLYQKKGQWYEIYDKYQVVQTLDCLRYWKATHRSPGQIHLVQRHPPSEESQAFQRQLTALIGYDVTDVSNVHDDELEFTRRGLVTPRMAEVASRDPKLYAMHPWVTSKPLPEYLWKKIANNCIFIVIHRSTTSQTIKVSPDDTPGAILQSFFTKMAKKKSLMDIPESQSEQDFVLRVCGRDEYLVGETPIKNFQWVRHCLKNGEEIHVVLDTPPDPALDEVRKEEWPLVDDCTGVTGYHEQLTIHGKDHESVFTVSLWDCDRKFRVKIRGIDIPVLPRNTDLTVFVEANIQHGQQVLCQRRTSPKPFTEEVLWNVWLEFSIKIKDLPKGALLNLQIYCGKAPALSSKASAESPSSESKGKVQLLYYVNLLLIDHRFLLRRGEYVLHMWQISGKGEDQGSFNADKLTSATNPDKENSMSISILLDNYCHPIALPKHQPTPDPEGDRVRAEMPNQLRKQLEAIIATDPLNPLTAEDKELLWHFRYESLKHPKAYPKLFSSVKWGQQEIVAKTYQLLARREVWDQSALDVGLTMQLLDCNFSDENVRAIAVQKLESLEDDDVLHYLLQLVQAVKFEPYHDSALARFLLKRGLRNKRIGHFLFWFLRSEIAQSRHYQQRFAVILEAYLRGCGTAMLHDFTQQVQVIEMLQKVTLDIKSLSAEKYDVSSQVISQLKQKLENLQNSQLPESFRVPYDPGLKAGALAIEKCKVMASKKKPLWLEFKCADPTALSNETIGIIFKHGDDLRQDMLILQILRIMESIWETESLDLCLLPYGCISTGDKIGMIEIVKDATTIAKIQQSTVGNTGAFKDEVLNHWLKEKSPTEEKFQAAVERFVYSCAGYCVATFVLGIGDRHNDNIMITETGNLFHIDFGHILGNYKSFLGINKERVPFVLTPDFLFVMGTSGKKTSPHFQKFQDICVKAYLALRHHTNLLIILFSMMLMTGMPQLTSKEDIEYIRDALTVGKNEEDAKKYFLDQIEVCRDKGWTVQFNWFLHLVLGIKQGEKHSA
T1 sequence (P42338 whole entry): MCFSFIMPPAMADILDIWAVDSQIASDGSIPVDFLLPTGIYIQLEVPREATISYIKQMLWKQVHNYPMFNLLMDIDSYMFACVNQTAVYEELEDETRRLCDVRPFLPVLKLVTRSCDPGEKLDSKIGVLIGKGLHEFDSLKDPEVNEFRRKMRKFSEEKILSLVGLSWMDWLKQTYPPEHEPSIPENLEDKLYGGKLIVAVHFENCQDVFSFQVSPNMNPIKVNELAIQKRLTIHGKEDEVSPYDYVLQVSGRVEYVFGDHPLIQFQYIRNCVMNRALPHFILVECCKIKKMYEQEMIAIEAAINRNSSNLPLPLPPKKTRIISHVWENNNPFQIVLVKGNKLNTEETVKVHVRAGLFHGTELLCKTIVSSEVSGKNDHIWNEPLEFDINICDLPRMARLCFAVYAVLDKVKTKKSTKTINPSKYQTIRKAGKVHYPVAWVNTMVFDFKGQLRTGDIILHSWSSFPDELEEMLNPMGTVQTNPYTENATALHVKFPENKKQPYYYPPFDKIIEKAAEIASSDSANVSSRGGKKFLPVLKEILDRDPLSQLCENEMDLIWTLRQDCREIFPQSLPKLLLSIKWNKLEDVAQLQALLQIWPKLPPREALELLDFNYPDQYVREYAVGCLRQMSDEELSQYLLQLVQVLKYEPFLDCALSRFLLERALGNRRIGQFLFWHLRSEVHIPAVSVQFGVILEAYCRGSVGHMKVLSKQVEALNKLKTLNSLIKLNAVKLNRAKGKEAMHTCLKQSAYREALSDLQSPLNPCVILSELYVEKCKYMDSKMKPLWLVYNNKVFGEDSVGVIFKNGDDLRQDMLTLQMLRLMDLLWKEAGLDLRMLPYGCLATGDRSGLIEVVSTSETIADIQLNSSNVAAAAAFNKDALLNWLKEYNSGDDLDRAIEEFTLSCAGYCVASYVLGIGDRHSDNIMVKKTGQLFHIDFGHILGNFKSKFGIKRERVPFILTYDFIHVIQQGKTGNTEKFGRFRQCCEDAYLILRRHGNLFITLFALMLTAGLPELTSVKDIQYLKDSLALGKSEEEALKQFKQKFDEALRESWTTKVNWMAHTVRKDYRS

## CC(c1oc(=O)c2ccccc2c1-c1ccc(CN2CCOCC2)s1)n1nc(-c2cc(O)cc(F)c2)c2c(N)ncnc21 (single isomer, unassigned) [Example 49b, 3-(1-(4-amino-3-(3-fluoro-5-hydroxyphenyl)-1H-pyrazolo[3,4-d]pyrimidin-1-yl)ethyl)-4-(5-(morpholinomethyl)thiophen-2-yl)-1H-isochromen-1-one hydrochloride]
PI3Kβ
  IC50: > 1000 nM
PI3Kγ
  IC50: > 1000 nM
PI3Kδ
  IC50: 10 to 1000 nM

## Nc1ncnc2c1ncn2Cc1oc(=O)c2ccccc2c1-c1ccccc1 [Example 1, 3-((6-Amino-9H-1-purin-9-yl)methyl)-4-phenyl-1H-isochromen-1-one]
PI3Kβ
  IC50: > 1000 nM
PI3Kγ
  IC50: 10 to 1000 nM
PI3Kδ
  IC50: 10 to 1000 nM

## Nc1ncnc2c1ncn2Cc1oc(=O)c2ccccc2c1-c1cccc(F)c1 [Example 2, 3-((6-Amino-9H-purin-9-yl)methyl)-4-(3-fluorophenyl)-1H-isochromen-1-one]
PI3Kβ
  IC50: > 1000 nM
PI3Kγ
  IC50: > 1000 nM
PI3Kδ
  IC50: 10 to 1000 nM

## Nc1ncnc2c1ncn2Cc1oc(=O)c2ccccc2c1-c1ccccc1F [Example 3, 3-((6-Amino-9H-purin-9-yl)methyl)-4-(2-fluorophenyl)-1H-isochromen-1-one]
PI3Kβ
  IC50: > 1000 nM
PI3Kγ
  IC50: > 1000 nM
PI3Kδ
  IC50: 10 to 1000 nM

## Cc1cccc(-c2c(Cn3cnc4c(N)ncnc43)oc(=O)c3ccccc23)c1 [Example 4, 3-((6-Amino-9H-purin-9-yl)methyl)-4-m-tolyl-1H-isochromen-1-one]
PI3Kβ
  IC50: > 1000 nM
PI3Kγ
  IC50: > 1000 nM
PI3Kδ
  IC50: 10 to 1000 nM

## CC(c1oc(=O)c2ccccc2c1-c1cncs1)n1ncc2c(N)ncnc21 (stereo not drawn) [Example 18, 3-(1-(4-Amino-1H-pyrazolo[3,4-d]pyrimidin-1-yl)ethyl)-4-(thiazol-5-yl)-1H-isochromen-1-one]
PI3Kβ
  IC50: 10 to 1000 nM
PI3Kγ
  IC50: > 1000 nM
PI3Kδ
  IC50: 10 to 1000 nM

## CCC(Nc1ncnc2[nH]cnc12)c1oc(=O)c2ccccc2c1-c1ccccc1 (stereo not drawn) [Example 25, 3-(1-(9H-Purin-6-ylamino)propyl)-4-phenyl-1H-isochromen-1-one]
PI3Kβ
  IC50: > 1000 nM
PI3Kγ
  IC50: 10 to 1000 nM
PI3Kδ
  IC50: < 10 nM

## CC(Nc1ncnc2[nH]cnc12)c1oc(=O)c2ccccc2c1-c1ccc(CN2CCOCC2)s1 (stereo not drawn) [Example 28, 3-(1-(9H-Purin-6-ylamino)ethyl)-4-(5-(morpholinomethyl)thiophen-2-yl)-1H-isochromen-1-one]
PI3Kβ
  IC50: > 1000 nM
PI3Kγ
  IC50: 10 to 1000 nM
PI3Kδ
  IC50: < 10 nM

## O=c1oc(CNc2ncnc3[nH]cnc23)c(-c2ccccc2F)c2ccccc12 [Example 30, 3-((9H-Purin-6-ylamino)methyl)-4-(2-fluorophenyl)-1H-isochromen-1-one]
PI3Kβ
  IC50: > 1000 nM
PI3Kγ
  IC50: 10 to 1000 nM
PI3Kδ
  IC50: 10 to 1000 nM

## CC(Nc1ncnc2[nH]cnc12)c1oc(=O)c2ccccc2c1-c1cccc(N(C)C)c1 (stereo not drawn) [Example 34, 3-(1-(9H-Purin-6-ylamino)ethyl)-4-(3-(dimethylamino)phenyl)-1H-isochromen-1-one]
PI3Kβ
  IC50: > 1000 nM
PI3Kγ
  IC50: 10 to 1000 nM
PI3Kδ
  IC50: 10 to 1000 nM

## Nc1ncnc2c1c(-c1cc(O)cc(F)c1)nn2Cc1oc(=O)c2ccccc2c1-c1ccccc1 [Example 35, 3-((4-Amino-3-(3-fluoro-5-hydroxyphenyl)-1H-pyrazolo[3,4-d]pyrimidin-1-yl)methyl)-4-phenyl-1H-isochromen-1-one]
PI3Kβ
  IC50: > 1000 nM
PI3Kγ
  IC50: 10 to 1000 nM
PI3Kδ
  IC50: < 10 nM

## Nc1ncnc2c1c(-c1ccc3[nH]ncc3c1)nn2Cc1oc(=O)c2ccccc2c1-c1ccccc1 [Example 36, 3-((4-Amino-3-(1H-indazol-5-yl)-1H-pyrazolo[3,4-d]pyrimidin-1-yl)methyl)-4-phenyl-1H-isochromen-1-one]
PI3Kβ
  IC50: > 1000 nM
PI3Kγ
  IC50: 10 to 1000 nM
PI3Kδ
  IC50: 10 to 1000 nM

## Nc1ncnc2c1c(-c1ccc3cn[nH]c3c1)nn2Cc1oc(=O)c2ccccc2c1-c1ccccc1 [Example 38, 3-((4-Amino-3-(1H-indazol-6-yl)-1H-pyrazolo[3,4-d]pyrimidin-1-yl)methyl)-4-phenyl-1H-isochromen-1-one]
PI3Kβ
  IC50: > 1000 nM
PI3Kγ
  IC50: 10 to 1000 nM
PI3Kδ
  IC50: 10 to 1000 nM

## Nc1ncnc2c1c(-c1ccc(O)c(F)c1)nn2Cc1oc(=O)c2ccccc2c1-c1ccccc1 [Example 39, 3-((4-Amino-3-(3-fluoro-4-hydroxyphenyl)-1H-pyrazolo[3,4-d]pyrimidin-1-yl)methyl)-4-phenyl-1H-isochromen-1-one]
PI3Kβ
  IC50: > 1000 nM
PI3Kγ
  IC50: 10 to 1000 nM
PI3Kδ
  IC50: 10 to 1000 nM

## CC(c1oc(=O)c2ccccc2c1-c1ccc(CN2CCCC2)s1)n1nc(-c2cc(O)cc(F)c2)c2c(N)ncnc21 (stereo not drawn) [Example 73, 3-(1-(4-amino-3-(3-fluoro-5-hydroxyphenyl)-1H-pyrazolo[3,4-d]pyrimidin-1-yl)ethyl)-4-(5-(pyrrolidin-1-ylmethyl)thiophen-2-yl)-1H-isochromen-1-one hydrochloride]
PI3Kβ
  IC50: 10 to 1000 nM
PI3Kγ
  IC50: > 1000 nM
PI3Kδ
  IC50: < 10 nM

## CC(c1oc(=O)c2ccccc2c1-c1ccc(C(=O)O)s1)n1nc(-c2cc(O)cc(F)c2)c2c(N)ncnc21 (stereo not drawn) [Example 78, 5-(3-(1-(4-amino-3-(3-fluoro-5-hydroxyphenyl)-1H-pyrazolo[3,4-d]pyrimidin-1-yl)ethyl)-1-oxo-1H-isochromen-4-yl)thiophene-2-carboxylic acid]
PI3Kβ
  IC50: > 1000 nM
PI3Kγ
  IC50: 10 to 1000 nM
PI3Kδ
  IC50: < 10 nM

## CC(Nc1ncnc(N)c1C#N)c1oc(=O)c2ccccc2c1-c1ccc(CN2CCOCC2)s1 (stereo not drawn) [Example 82, 4-amino-6-((1-(4-(5-(morpholinomethyl)thiophen-2-yl)-1-oxo-1H-isochromen-3-yl)ethyl)amino)pyrimidine-5-carbonitrile hydrochloride]
PI3Kβ
  IC50: > 1000 nM
PI3Kγ
  IC50: 10 to 1000 nM
PI3Kδ
  IC50: < 10 nM

## CC(c1oc(=O)c2ccccc2c1-c1ccccc1)n1nc(-c2cncc(N)c2)c2c(N)ncnc21 (stereo not drawn) [Example 88, 3-(1-(4-amino-3-(5-aminopyridin-3-yl)-1H-pyrazolo[3,4-d]pyrimidin-1-yl)ethyl)-4-phenyl-1H-isochromen-1-one hydrochloride]
PI3Kβ
  IC50: 10 to 1000 nM
PI3Kγ
  IC50: > 1000 nM
PI3Kδ
  IC50: 10 to 1000 nM

## CC(c1oc(=O)c2ccccc2c1-c1ccccc1)n1nc(C(F)(F)F)c2c(N)ncnc21 (stereo not drawn) [Example 104, 3-(1-(4-amino-3-(trifluoromethyl)-1H-pyrazolo[3,4-d]pyrimidin-1-yl)ethyl)-4-phenyl-1H-isochromen-1-one]
PI3Kβ
  IC50: > 1000 nM
PI3Kγ
  IC50: > 1000 nM
PI3Kδ
  IC50: 10 to 1000 nM

## Cc1nn(C(C)c2oc(=O)c3ccccc3c2-c2ccccc2)c2ncnc(N)c12 (stereo not drawn) [Example 105, 3-(1-(4-amino-3-methyl-1H-pyrazolo[3,4-d]pyrimidin-1-yl)ethyl)-4-phenyl-1H-isochromen-1-one]
PI3Kβ
  IC50: 10 to 1000 nM
PI3Kγ
  IC50: 10 to 1000 nM
PI3Kδ
  IC50: < 10 nM

## CC(c1oc(=O)c2ccccc2c1-c1ccccc1)n1nc(-c2cccc3[nH]ncc23)c2c(N)ncnc21 (stereo not drawn) [Example 112, 3-(1-(4-amino-3-(1H-indazol-4-yl)-1H-pyrazolo[3,4-d]pyrimidin-1-yl)ethyl)-4-phenyl-1H-isochromen-1-one]
PI3Kβ
  IC50: > 1000 nM
PI3Kγ
  IC50: 10 to 1000 nM
PI3Kδ
  IC50: 10 to 1000 nM

## CC(c1oc(=O)c2ccccc2c1-c1ccc(CN2CCNCC2)cc1)n1nc(-c2cc(O)cc(F)c2)c2c(N)ncnc21 (stereo not drawn) [Example 125, 3-(1-(4-amino-3-(3-fluoro-5-hydroxyphenyl)-1H-pyrazolo[3,4-d]pyrimidin-1-yl)ethyl)-4-(4-(piperazin-1-ylmethyl)phenyl)-1H-isochromen-1-one dihydrochloride]
PI3Kβ
  IC50: > 1000 nM
PI3Kγ
  IC50: > 1000 nM
PI3Kδ
  IC50: 10 to 1000 nM

## CC(c1oc(=O)c2ccccc2c1C1=CCN(Cc2ccccc2)CC1)n1nc(-c2cc(O)cc(F)c2)c2c(N)ncnc21 (stereo not drawn) [Example 131, 3-(1-(4-amino-3-(3-fluoro-5-hydroxyphenyl)-1H-pyrazolo[3,4-d]pyrimidin-1-yl)ethyl)-4-(1-benzyl-1,2,3,6-tetrahydropyridin-4-yl)-1H-isochromen-1-one hydrochloride]
PI3Kβ
  IC50: > 1000 nM
PI3Kγ
  IC50: > 1000 nM
PI3Kδ
  IC50: 10 to 1000 nM

## CC(c1oc(=O)c2ccccc2c1-c1cccc(CN2CCCCC2)c1)n1nc(-c2cc(O)cc(F)c2)c2c(N)ncnc21 (stereo not drawn) [Example 143, 3-(1-(4-amino-3-(3-fluoro-5-hydroxyphenyl)-1H-pyrazolo[3,4-d]pyrimidin-1-yl)ethyl)-4-(3-(piperidin-1-ylmethyl)phenyl)-1H-isochromen-1-one, Formate]
PI3Kβ
  IC50: 10 to 1000 nM
PI3Kγ
  IC50: > 1000 nM
PI3Kδ
  IC50: 10 to 1000 nM
